Measurements: US6737409B2, “Dolastatin 10 derivatives” (Hoffmann-La Roche Inc., priority 2001, dated 2004)

test system: not listed separately; test: Maximum tolerated dose (MTD) by i.v. administration in mice; conditions: mouse, in vivo, iv, read-out: maximum tolerated doses (MTD)
Experimental: The maximum tolerated doses (MTD) of the following representative compounds
of the present invention were examined by i.v. administration in mice. The respective MTD values of the compounds were 14, 18, 10, 8, 8, 2 and 2 mg/kg.

Row | Structure (SMILES) | MTD
1 | CCC(C)C(C(CC(=O)N1CCCC1C(CC(=O)NCCc1ccccc1)SC(C)C)OC)N(C)C(=O)C(NC(=O)C(NC)C(C)C)C(C)C (centres unmarked) [N-[1-({1-sec-Butyl-4-[2-(1-isopropylsulfanyl-2-phenethylcarbamoyl-ethyl)-pyrrolidin-1-yl]-2-methoxy-4-oxo-butyl}-methyl-carbamoyl)-2-methyl-propyl]-3-methyl-2-methylamino-butyramide] | 10 mg/kg
2 | CCSC(C(C)C(=O)N(C)CCc1cccc(O)c1)C1CCCN1C(=O)CC(OC)C(C(C)CC)N(C)C(=O)C(NC(=O)C(C(C)C)N(C)C)C(C)C (single isomer, unassigned) [N-[1-({1-sec-Butyl-4-[2-(1-ethylsulfanyl-2-{[2-(3-hydroxy-phenyl)-ethyl]-methyl-carbamoyl}-propyl)-pyrrolidin-1-yl]-2-methoxy-4-oxo-butyl}-methyl-carbamoyl)-2-methyl-propyl]-2-dimethylamino-3-methyl-butyramide] | 8 mg/kg

test system: HCT 116; test: Antiproliferative activity assay (WST-8); assay type: cell-based; conditions: Homo sapiens, HCT-116, 96 h, read-out: HCT 116 IC50 (nM)
Experimental: Antiproliferative activity assay was carried out as follows. A single suspension of tumor cells was inoculated to the serially diluted 96-well microtestplate. Then the testplate was incubated in the 5% CO2 ambience at 37° C. for 4 days (2-3×10^3 cells/well). The degree of cell growth in a monolayer was measured by using WST-8 (Dojindo, Japan). IC50 values of drugs against tumor cells were calculated as the concentration of drug yielding 50% OD of the control growth.

Row | Structure (SMILES) | IC50
3 | CCNC(=O)Oc1cccc(CCNC(=O)C(C)C(SC)C2CCCN2C(=O)CC(OC)C(C(C)CC)N(C)C(=O)C(NC(=O)C(C(C)C)N(C)C)C(C)C)c1 (centres unmarked) [Ethyl-carbamic acid 3-(2-{3-[1-(4-{[2-(2-dimethylamino-3-methyl-butyrylamino)-3-methyl-butyryl]-methyl-amino}-3-methoxy-5-methyl-heptanoyl)-pyrrolidin-2-yl]-2-methyl-3-methylsulfanyl-propionylamino}-ethyl)-phenyl ester] | 0.57 nM

same assay, conditions: Homo sapiens, HCT-116, 96 h; incubated 4 days, WST-8; concentration of drug yielding 50% OD of the control growth; read-out: HCT 116 IC50

Row | Structure (SMILES) | IC50
4 | CCC(C)C(C(CC(=O)N1CCCC1C(CC(=O)NCCc1ccccc1)SC(C)C)OC)N(C)C(=O)C(NC(=O)C(NC)C(C)C)C(C)C (centres unmarked) [N-[1-({1-sec-Butyl-4-[2-(1-isopropylsulfanyl-2-phenethylcarbamoyl-ethyl)-pyrrolidin-1-yl]-2-methoxy-4-oxo-butyl}-methyl-carbamoyl)-2-methyl-propyl]-3-methyl-2-methylamino-butyramide] | 0.65 nM
5 | CCSC(C(C)C(=O)N(C)CCc1cccc(O)c1)C1CCCN1C(=O)CC(OC)C(C(C)CC)N(C)C(=O)C(NC(=O)C(C(C)C)N(C)C)C(C)C (single isomer, unassigned) [N-[1-({1-sec-Butyl-4-[2-(1-ethylsulfanyl-2-{[2-(3-hydroxy-phenyl)-ethyl]-methyl-carbamoyl}-propyl)-pyrrolidin-1-yl]-2-methoxy-4-oxo-butyl}-methyl-carbamoyl)-2-methyl-propyl]-2-dimethylamino-3-methyl-butyramide] | 0.11 nM
6 | CCC(C)C(C(CC(=O)N1CCCC1C(CC(=O)NCCc1cccs1)SC)OC)N(C)C(=O)C(NC(=O)C(C(C)C)N(C)C)C(C)C (centres unmarked) [N-{1-[(1-sec-Butyl-2-methoxy-4-{2-[1-methylsulfanyl-2-(2-thiophen-2-yl-ethylcarbamoyl)-ethyl]-pyrrolidin-1-yl}-4-oxo-butyl)-methyl-carbamoyl]-2-methyl-propyl}-2-dimethylamino-3-methyl-butyramide] | 0.5 nM
7 | CCC(C)C(C(CC(=O)N1CCCC1C(CC(=O)NCCc1ccccn1)SC)OC)N(C)C(=O)C(NC(=O)C(C(C)C)N(C)C)C(C)C (centres unmarked) [N-{1-[(1-sec-Butyl-2-methoxy-4-{2-[1-methylsulfanyl-2-(2-pyridin-2-yl-ethylcarbamoyl)-ethyl]-pyrrolidin-1-yl}-4-oxo-butyl)-methyl-carbamoyl]-2-methyl-propyl}-2-dimethylamino-3-methyl-butyramide] | 0.9 nM
8 | CCC(C)C(C(CC(=O)N1CCCC1C(CC(=O)NCCc1cccc(O)c1)SC)OC)N(C)C(=O)C(NC(=O)C(C(C)C)N(C)C)C(C)C (centres unmarked) [N-(1-{[1-sec-Butyl-4-(2-{2-[2-(3-hydroxy-phenyl)-ethylcarbamoyl]-1-methylsulfanyl-ethyl}-pyrrolidin-1-yl)-2-methoxy-4-oxo-butyl]-methyl-carbamoyl}-2-methyl-propyl)-2-dimethylamino-3-methyl-butyramide] | 0.26 nM
9 | CCC(C)C(C(CC(=O)N1CCCC1C(CC(=O)NCCc1cccnc1)SC)OC)N(C)C(=O)C(NC(=O)C(C(C)C)N(C)C)C(C)C (centres unmarked) [N-{1-[(1-sec-Butyl-2-methoxy-4-{2-[1-methylsulfanyl-2-(2-pyridin-3-yl-ethylcarbamoyl)-ethyl]-pyrrolidin-1-yl}-4-oxo-butyl)-methyl-carbamoyl]-2-methyl-propyl}-2-dimethylamino-3-methyl-butyramide] | 0.91 nM
10 | CCSC(CC(=O)NCCc1ccccc1)C1CCCN1C(=O)CC(OC)C(C(C)CC)N(C)C(=O)C(NC(=O)C(C(C)C)N(C)C)C(C)C (centres unmarked) [N-[1-({1-sec-Butyl-4-[2-(1-ethylsulfanyl-2-phenethylcarbamoyl-ethyl)-pyrrolidin-1-yl]-2-methoxy-4-oxo-butyl}-methyl-carbamoyl)-2-methyl-propyl]-2-dimethylamino-3-methyl-butyramide] | 0.78 nM
11 | CCC(C)C(C(CC(=O)N1CCCC1C(CC(=O)NCCc1ccc(OC)c(OC)c1)SC)OC)N(C)C(=O)C(NC(=O)C(C(C)C)N(C)C)C(C)C (centres unmarked) [N-(1-{[1-sec-Butyl-4-(2-{2-[2-(3,4-dimethoxy-phenyl)-ethylcarbamoyl]-1-methylsulfanyl-ethyl}-pyrrolidin-1-yl)-2-methoxy-4-oxo-butyl]-methyl-carbamoyl}-2-methyl-propyl)-2-dimethylamino-3-methyl-butyramide] | 0.91 nM
12 | CCC(C)C(C(CC(=O)N1CCCC1C(SC)C(C)C(=O)NCCc1ccccc1)OC)N(C)C(=O)C(NC(=O)C(C(C)C)N(C)C)C(C)C (centres unmarked) [N-[1-({1-sec-Butyl-2-methoxy-4-[2-(1-methylsulfanyl-2-phenethylcarbamoyl-propyl)-pyrrolidin-1-yl]-4-oxo-butyl}-methyl-carbamoyl)-2-methyl-propyl]-2-dimethylamino-3-methyl-butyramide] | 0.04 nM
13 | CCC(C)C(C(CC(=O)N1CCCC1C(CC(=O)NCCc1cccc(O)c1)SCC(=O)N(C)C)OC)N(C)C(=O)C(NC(=O)C(C(C)C)N(C)C)C(C)C (centres unmarked) [N-(1-{[1-sec-Butyl-4-(2-{1-dimethylcarbamoylmethylsulfanyl-2-[2-(3-hydroxy-phenyl)-ethylcarbamoyl]-ethyl}-pyrrolidin-1-yl)-2-methoxy-4-oxo-butyl]-methyl-carbamoyl}-2-methyl-propyl)-2-dimethylamino-3-methyl-butyramide] | 1.8 nM
14 | CCC(C)C(C(CC(=O)N1CCCC1C(CC(=O)NCCc1ccccc1)SCCO)OC)N(C)C(=O)C(NC(=O)C(C(C)C)N(C)C)C(C)C (centres unmarked) [N-{1-[(1-sec-Butyl-4-{2-[1-(2-hydroxy-ethylsulfanyl)-2-phenethylcarbamoyl-ethyl]-pyrrolidin-1-yl}-2-methoxy-4-oxo-butyl)-methyl-carbamoyl]-2-methyl-propyl}-2-dimethylamino-3-methyl-butyramide] | 0.39 nM
15 | CCC(C)C(C(CC(=O)N1CCCC1C(CC(=O)NCCc1ccccc1)Sc1cccc(O)c1)OC)N(C)C(=O)C(NC(=O)C(C(C)C)N(C)C)C(C)C (centres unmarked) [N-{1-[(1-sec-Butyl-4-{2-[1-(3-hydroxy-phenylsulfanyl)-2-phenethylcarbamoyl-ethyl]-pyrrolidin-1-yl}-2-methoxy-4-oxo-butyl)-methyl-carbamoyl]-2-methyl-propyl}-2-dimethylamino-3-methyl-butyramide] | 0.3 nM
16 | CCSC(CC(=O)NCCc1ccccc1)C1CCCN1C(=O)CC(OC)C(C(C)CC)N(C)C(=O)C(NC(=O)C(NC)C(C)C)C(C)C (centres unmarked) [N-[1-({1-sec-Butyl-4-[2-(1-ethylsulfanyl-2-phenethylcarbamoyl-ethyl)-pyrrolidin-1-yl]-2-methoxy-4-oxo-butyl}-methyl-carbamoyl)-2-methyl-propyl]-3-methyl-2-methylamino-butyramide] | 0.5 nM
17 | CCNC(=O)OCCSC(CC(=O)NCCc1ccccc1)C1CCCN1C(=O)CC(OC)C(C(C)CC)N(C)C(=O)C(NC(=O)C(C(C)C)N(C)C)C(C)C (centres unmarked) [Ethyl-carbamic acid 2-{1-[1-(4-{[2-(2-dimethylamino-3-methyl-butyrylamino)-3-methyl-butyryl]-methyl-amino}-3-methoxy-5-methyl-heptanoyl)-pyrrolidin-2-yl]-2-phenethylcarbamoyl-ethylsulfanyl}-ethyl ester] | 0.97 nM
18 | CCC(C)C(C(CC(=O)N1CCCC1C(CC(=O)NCCc1ccccc1)S(C)(=O)=O)OC)N(C)C(=O)C(NC(=O)C(C(C)C)N(C)C)C(C)C (centres unmarked) [N-[1-({1-sec-Butyl-4-[2-(1-methanesulfonyl-2-phenethylcarbamoyl-ethyl)-pyrrolidin-1-yl]-2-methoxy-4-oxo-butyl}-methyl-carbamoyl)-2-methyl-propyl]-2-dimethylamino-3-methyl-butyramide] | 0.44 nM
19 | CCC(C)C(C(CC(=O)N1CCCC1C(CC(=O)NCCc1ccccc1O)SC)OC)N(C)C(=O)C(NC(=O)C(C(C)C)N(C)C)C(C)C (centres unmarked) [N-(1-{[1-sec-Butyl-4-(2-{2-[2-(2-hydroxy-phenyl)-ethylcarbamoyl]-1-methylsulfanyl-ethyl}-pyrrolidin-1-yl)-2-methoxy-4-oxo-butyl]-methyl-carbamoyl}-2-methyl-propyl)-2-dimethylamino-3-methyl-butyramide] | 0.64 nM
20 | CCC(C)C(C(CC(=O)N1CCCC1C(CC(=O)NCCc1ccccc1)Sc1ccc(NC(C)=O)cc1)OC)N(C)C(=O)C(NC(=O)C(C(C)C)N(C)C)C(C)C (centres unmarked) [N-{1-[(4-{2-[1-(4-Acetylamino-phenylsulfanyl)-2-phenethylcarbamoyl-ethyl]-pyrrolidin-1-yl}-1-sec-butyl-2-methoxy-4-oxo-butyl)-methyl-carbamoyl]-2-methyl-propyl}-2-dimethylamino-3-methyl-butyramide] | 0.98 nM
21 | C=CCSC(CC(=O)NCCc1ccccc1)C1CCCN1C(=O)CC(OC)C(C(C)CC)N(C)C(=O)C(NC(=O)C(C(C)C)N(C)C)C(C)C (centres unmarked) [N-[1-({4-[2-(1-Allylsulfanyl-2-phenethylcarbamoyl-ethyl)-pyrrolidin-1-yl]-1-sec-butyl-2-methoxy-4-oxo-butyl}-methyl-carbamoyl)-2-methyl-propyl]-2-dimethylamino-3-methyl-butyramide] | 0.55 nM
22 | CCC(C)C(C(CC(=O)N1CCCC1C(CC(=O)NCCc1ccccc1)Sc1ccccc1)OC)N(C)C(=O)C(NC(=O)C(C(C)C)N(C)C)C(C)C (centres unmarked) [N-[1-({1-sec-Butyl-2-methoxy-4-oxo-4-[2-(2-phenethylcarbamoyl-1-phenylsulfanyl-ethyl)-pyrrolidin-1-yl]-butyl}-methyl-carbamoyl)-2-methyl-propyl]-2-dimethylamino-3-methyl-butyramide] | 0.33 nM
23 | CCCCCSC(CC(=O)NCCc1ccccc1)C1CCCN1C(=O)CC(OC)C(C(C)CC)N(C)C(=O)C(NC(=O)C(C(C)C)N(C)C)C(C)C (centres unmarked) [N-[1-({1-sec-Butyl-2-methoxy-4-oxo-4-[2-(1-pentylsulfanyl-2-phenethylcarbamoyl-ethyl)-pyrrolidin-1-yl]-butyl}-methyl-carbamoyl)-2-methyl-propyl]-2-dimethylamino-3-methyl-butyramide] | 0.75 nM
